In ChEMBL document CHEMBL5338818, “Discovery of the First Potent, Selective, and In Vivo Efficacious Polo-like Kinase 4 Proteolysis Targeting Chimera Degrader for the Treatment of TRIM37-Amplified Breast Cancer” (J Med Chem, 2023):
The source made the active and inactive calls. The rule behind the calls is not given here.

Key:
[1] = Observed AUC infinity in ICR mouse at 20 mg/kg, ip measured upto 24 hrs by LC-M/MS analysis; assay type: ADME, organism-based; set-up: dose 20 mg/kg, time < 24 hrs, route ip; conditions: in vivo
[2] = Efflux ratio of apparent permeability across basolateral to apical side over apical to basolateral side in human Caco-2 cells; assay type: ADME, cell-based
MCF7 [3] = assay: Induction of cell senescence in human MCF7 cells assessed by increase SA-beta-Gal positive cells at 2 uM measured after 48 hrs; assay type: functional, cell-based
[4] = molecular target: Protein cereblon/Serine/threonine-protein kinase PLK4 (Homo sapiens, UniProt O00444+Q96SW2); assay: Protac activity at CRBN/PLK4 in human MCF7 cells at 1 uM incubated for 48 hrs by Western blot analysis; assay type: cell-based
[5] = Half life in ICR mouse at 2 mg/kg, iv measured upto 24 hrs by LC-M/MS analysis; assay type: ADME, organism-based; conditions: in vivo
[6] = Observed volume of distribution at steady state in ICR mouse at 2 mg/kg, iv measured upto 24 hrs by LC-M/MS analysis; assay type: ADME, organism-based; conditions: in vivo, read-out: Vdss
[7] = molecular target: T1, Serine/threonine-protein kinase PLK4 (Homo sapiens) (UniProt O00444); assay: Inhibition of PLK4 in human MCF7 cells assessed as increase in SAS-6 degradation by Western blot analysis; assay type: cell-based; conditions: dose 1-1000 nM
T1 sequence (whole entry): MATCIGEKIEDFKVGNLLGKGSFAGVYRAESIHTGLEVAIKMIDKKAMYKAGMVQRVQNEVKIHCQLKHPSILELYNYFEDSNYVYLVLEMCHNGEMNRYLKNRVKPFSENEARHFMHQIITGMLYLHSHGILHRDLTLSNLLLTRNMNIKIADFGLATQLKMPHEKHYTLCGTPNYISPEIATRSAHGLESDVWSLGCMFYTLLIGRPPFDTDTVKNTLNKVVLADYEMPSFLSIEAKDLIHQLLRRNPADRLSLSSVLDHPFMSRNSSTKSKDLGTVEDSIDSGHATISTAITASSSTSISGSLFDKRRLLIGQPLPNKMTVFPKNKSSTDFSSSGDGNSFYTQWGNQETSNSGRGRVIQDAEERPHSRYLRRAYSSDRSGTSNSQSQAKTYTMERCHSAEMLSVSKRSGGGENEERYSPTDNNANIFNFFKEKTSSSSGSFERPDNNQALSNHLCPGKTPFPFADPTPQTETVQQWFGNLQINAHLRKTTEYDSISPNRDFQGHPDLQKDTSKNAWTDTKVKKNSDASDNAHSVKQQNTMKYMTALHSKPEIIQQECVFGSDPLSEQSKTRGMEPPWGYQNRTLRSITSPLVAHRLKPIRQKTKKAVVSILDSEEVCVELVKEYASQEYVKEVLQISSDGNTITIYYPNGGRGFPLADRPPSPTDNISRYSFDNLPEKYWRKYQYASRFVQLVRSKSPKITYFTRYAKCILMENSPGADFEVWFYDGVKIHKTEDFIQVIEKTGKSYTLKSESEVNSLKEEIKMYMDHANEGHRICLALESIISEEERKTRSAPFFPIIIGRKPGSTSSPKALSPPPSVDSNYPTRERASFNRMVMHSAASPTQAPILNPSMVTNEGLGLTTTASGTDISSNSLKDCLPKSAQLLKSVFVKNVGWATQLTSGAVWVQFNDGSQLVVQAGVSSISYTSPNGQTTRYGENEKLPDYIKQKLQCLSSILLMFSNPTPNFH

[8] = Cmax in ICR mouse at 20 mg/kg, ip measured upto 24 hrs by LC-M/MS analysis; assay type: ADME, organism-based; set-up: dose 20 mg/kg, time < 24 hrs, route ip; conditions: in vivo
[9] = Toxicity in nu/nu mouse xenografted with human MCF7 cells assessed as effect on spleen at 20 mg/kg, ip administered once every other day for 21 days by HE staining based analysis; assay type: organism-based; conditions: in vivo, 504 h, time 21 day
[10] = Metabolic stability in mouse liver microsomes assessed as compound remaining at 100 uM incubated for 60 mins by LC-MS/MS analysis; assay type: ADME, Microsome; conditions: read-out: Stability
MCF7 [11] = assay: Antiproliferative activity against human MCF7 cells measured at 4 to 8 days interval by cell counting analysis; assay type: functional, cell-based; conditions: time 4-8 day
[12] = Apparent permeability across apical to basolateral side in human Caco-2 cells at 2 uM incubated for 2 hrs by LC-MS/MS analysis; assay type: ADME, cell-based
[13] = Toxicity in nu/nu mouse xenografted with human MCF7 cells assessed as change in body weight at 20 mg/kg, ip administered once every other day for 21 days; assay type: organism-based; conditions: in vivo, 504 h, time 21 day
[14] = molecular target: T2, Serine/threonine-protein kinase PLK4 (Homo sapiens, UniProt O00444); assay: Inhibition of PLK4 (unknown origin) incubated for 1 hr in presence of kinase tracer 236 by FRET assay
T2 sequence (O00444 whole entry): T1 sequence (whole entry)

CYP2C19 = CYP2C19 (Homo sapiens, UniProt P33261); assay: Inhibition of CYP2C19 in human liver microsomes at 10 uM using (+)-3-benzylnirvanol as substrate preincubated for 10 mins followed by NADPH regenerating system addition and measured after 15 mins by LC-MS/MS analysis relative to control; assay type: ADME, Microsome; conditions: probe (+)-3-benzylnirvanol (named as substrate in the text), time 25 min
[15] = Metabolic stability in mouse liver microsomes assessed as compound remaining at 100 uM incubated for 60 mins in presence of NADPH by LC-MS/MS analysis; assay type: ADME, Microsome; conditions: read-out: Stability
[16] = Toxicity in nu/nu mouse xenografted with human MCF7 cells assessed as effect on kidney at 20 mg/kg, ip administered once every other day for 21 days by HE staining based analysis; assay type: organism-based; conditions: in vivo, 504 h, time 21 day
[17] = Toxicity in nu/nu mouse xenografted with human MCF7 cells assessed as effect on liver at 20 mg/kg, ip administered once every other day for 21 days by HE staining based analysis; assay type: organism-based; conditions: in vivo, 504 h, time 21 day
[18] = Metabolic stability in rat liver microsomes assessed as compound remaining at 100 uM incubated for 60 mins by LC-MS/MS analysis; assay type: ADME, Microsome; conditions: read-out: Stability
MCF7 [19] = assay: Antitumor activity against human MCF7 cells xenografted in nu/nu mouse assessed as induction of apoptosis at 20 mg/kg, ip measured once every other day for 21 days by TUNEL assay; assay type: functional, organism-based; conditions: time 21.0 day
[20] = Bioavailability in ICR mouse at […] measured upto 24 hrs by LC-M/MS analysis; assay type: ADME, organism-based; conditions: in vivo
MCF7 [21] = assay: Antiproliferative activity against human MCF7 cells incubated for 5 days by CCK-8 assay; conditions: MCF7, 120 h
Mus musculus = assay: In vivo induction of PLK degradation in human MCF7 cells xenografted in nu/nu mouse at 20 mg/kg, ip administered once every other day for 21 days by western blotting analysis; assay type: functional, organism-based; conditions: time 21.0 day
MCF7 [22] = assay: Inhibition of colony formation in human MCF7 cells incubated for 14 days by crystal violet staining based assay; assay type: functional, cell-based; conditions: dose 0.05-1 µM, time 14.0 day
[23] = Observed clearance in ICR mouse at 2 mg/kg, iv measured upto 24 hrs by LC-M/MS analysis; assay type: ADME, organism-based; conditions: in vivo
[24] = Stability in human plasma assessed as compound remaining at 100 uM after 10 mins by LC-MS/MS analysis (reference value: 100%); assay type: ADME, cell-free; conditions: read-out: Stability
[25] = Observed AUC infinity in ICR mouse at 2 mg/kg, iv measured upto 24 hrs by LC-M/MS analysis; assay type: ADME, organism-based; set-up: time < 24 hrs, dose 2 mg/kg, route iv; conditions: in vivo

Sequence of Protein cereblon/Serine/threonine-protein kinase PLK4 (Q96SW2 whole entry, looked up, one chain of several): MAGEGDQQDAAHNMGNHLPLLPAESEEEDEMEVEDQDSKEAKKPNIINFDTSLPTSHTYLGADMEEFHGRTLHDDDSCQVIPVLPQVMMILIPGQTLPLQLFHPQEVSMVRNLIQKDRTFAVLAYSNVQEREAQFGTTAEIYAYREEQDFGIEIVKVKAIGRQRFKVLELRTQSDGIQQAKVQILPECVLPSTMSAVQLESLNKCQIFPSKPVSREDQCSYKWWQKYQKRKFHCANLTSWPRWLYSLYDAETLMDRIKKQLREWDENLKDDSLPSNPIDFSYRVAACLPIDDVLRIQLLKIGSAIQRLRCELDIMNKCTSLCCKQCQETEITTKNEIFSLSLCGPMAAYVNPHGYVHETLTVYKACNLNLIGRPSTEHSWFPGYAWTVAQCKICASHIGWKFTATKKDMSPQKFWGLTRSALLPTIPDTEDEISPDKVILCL
Sequence of CYP2C19 (P33261 whole entry): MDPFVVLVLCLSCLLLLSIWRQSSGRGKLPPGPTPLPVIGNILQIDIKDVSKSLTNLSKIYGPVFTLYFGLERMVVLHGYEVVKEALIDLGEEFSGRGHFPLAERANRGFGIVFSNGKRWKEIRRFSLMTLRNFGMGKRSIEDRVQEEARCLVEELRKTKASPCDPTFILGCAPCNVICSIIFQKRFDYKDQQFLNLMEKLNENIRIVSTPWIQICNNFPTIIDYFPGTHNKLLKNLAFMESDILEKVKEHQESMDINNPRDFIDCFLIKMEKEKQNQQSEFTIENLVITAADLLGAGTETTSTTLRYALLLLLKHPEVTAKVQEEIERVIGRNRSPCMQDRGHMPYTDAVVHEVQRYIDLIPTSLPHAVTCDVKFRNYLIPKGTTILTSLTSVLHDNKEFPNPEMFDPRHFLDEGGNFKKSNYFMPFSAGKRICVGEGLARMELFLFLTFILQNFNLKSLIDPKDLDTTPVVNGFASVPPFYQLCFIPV

For Cc1cc(Nc2nc(NCc3ccc(F)cc3F)nc3c2cnn3C2CCN(C(=O)C3CCN(c4ccc5c(c4)C(=O)N(C4CCC(=O)NC4=O)C5=O)CC3)CC2)n[nH]1 (configuration not stated), the AUC(0-inf) [1] was 14200 ng·h/mL, the efflux ratio [2] was 2.02 and the Activity (MCF7 [3]) was “Active”. It also gave an Activity [4] of 73.4%, a half-life [5] of 5.34 h and a Vd [6] of 16.3 L/kg. The inhibition [7] was “Dose-Dependent Effect”, the Cmax [8] was 4570 ng/mL and the Activity [9] was “Non-Toxic”. For the same compound, the remaining at 1 h, 100 µM [10] was 80.7%, the Activity (MCF7 [11]) was “Active” and the Papp A→B at 2 h, 2 µM [12] was 0.48 ×10⁻⁶ cm/s. For the same compound, the Activity [13] was “Non-Toxic”, the IC50 [14] was 8.4 nM and the inhibition at 0.25 h, 10 µM (CYP2C19) was 23.4%. The remaining at 1 h, 100 µM [15] was 56.4%, the Activity [16] was “Non-Toxic” and the Activity [17] was “Non-Toxic”. The remaining at 1 h, 100 µM [18] was 93.1%, the inhibition (MCF7 [19]) was “Active” and the bioavailability [20] was 149%. For the same compound, the IC50 (MCF7 [21]) was 73 nM, the inhibition (Mus musculus) was “Active” and the inhibition (MCF7 [22]) was “Dose-Dependent Effect”. For the same compound, the clearance [23] was 34.9 mL/min/kg, the remaining at 10 min, 100 µM [24] was 93.9% and the AUC(0-inf) [25] was 956 ng·h/mL.
